Reference: US20230348401A1, “Inhibitors of Glucose-6-phosphate Dehydrogenase and Uses Thereof” (The Trustees of Princeton University, priority 2020, published 2023)
Where “and” joins values, the source holds several entries; their conditions need not be identical. Equal values may be shown once.

Molecular target: G6PD (Homo sapiens, UniProt P11413)
Test: G6PD enzymatic activity by diaphorase-coupled assay
Conditions: not given

Sequence of G6PD (P11413 28-515): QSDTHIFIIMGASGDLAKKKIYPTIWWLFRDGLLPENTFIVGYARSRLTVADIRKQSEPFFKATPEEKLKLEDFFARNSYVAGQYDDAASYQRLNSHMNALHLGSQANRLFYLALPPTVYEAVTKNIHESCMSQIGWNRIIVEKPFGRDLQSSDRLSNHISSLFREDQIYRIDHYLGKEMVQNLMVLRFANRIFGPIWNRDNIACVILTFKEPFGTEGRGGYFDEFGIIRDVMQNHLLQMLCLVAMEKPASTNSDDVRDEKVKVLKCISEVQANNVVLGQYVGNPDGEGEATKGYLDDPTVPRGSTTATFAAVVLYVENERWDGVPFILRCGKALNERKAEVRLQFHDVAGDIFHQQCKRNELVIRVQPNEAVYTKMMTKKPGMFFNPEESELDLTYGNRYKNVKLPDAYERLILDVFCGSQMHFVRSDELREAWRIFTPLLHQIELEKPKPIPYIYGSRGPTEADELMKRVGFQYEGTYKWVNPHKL

Row | IC50 [µM] | SMILES
1 | 1 to 1000 | N#Cc1cc(Nc2cc3c(cn2)C(=O)CCCC3)cs1 [Compound 0066]
2 | > 1000 | CC(C)(C)COc1cc(C#N)cc(Nc2ncc3c(n2)CCCCC3=O)c1 [Compound 0106]
3 | 1 to 1000 | O=C1CCCCc2nc(Nc3ccc([N+](=O)[O-])c(Cl)c3)ncc21 [Compound 0025]
4 | < 1 | N#Cc1cc(Nc2ncc3c(n2)CCCC3=O)cs1 [KG-0254-0A]
5 | 1 to 1000 | N#Cc1cc(Nc2ncc3c(n2)CCCCC3=O)cc(OCC2CCCC2)c1 [Compound 0099]
6 | > 1000 | Cc1cccc(Nc2ccc3c(c2)CCNC3=O)c1 [KG-0057]
7 | > 1000 | N#Cc1cc(Nc2ncc3c(n2)CCCCC3=O)cc(OCC23C[C@H]4C[C@@H](C2)C[C@@H](C3)C4)c1 [Compound 0105]
8 | 1 to 1000 | CCCCc1cc(C#N)cc(Nc2ncc3c(n2)CCCCC3=O)c1 [Compound 0162]
9 | 1 to 1000 | N#Cc1cc(Nc2ncc3c(n2)CCCCC3=O)ccc1Cl [Compound 0018]
10 | < 1 | CC(C)Oc1cc(C#N)cc(Nc2ncc3c(n2)CCCCC3=O)c1 [Compound 0061]
11 | 1 to 1000 | N#Cc1cc(Nc2ncc3c(n2)CCCNC3=O)cs1 [Compound 0135]
12 | 1 to 1000 | N#Cc1cc(Nc2ncc3c(n2)CCCCC3=O)c(C(F)(F)F)s1 [KG-0337-0A]
13 | > 1000 | Cc1cccc(Oc2ncc3c(n2)CCCC3=O)c1 [KG-0141-0]
14 | > 1000 | CCCCCCCCCCCCCCOc1cc(C#N)cc(Nc2ncc3c(n2)CCCCC3=O)c1 [Compound 0092]
15 | 1 to 1000 | O=C1CCCc2nc(NCc3cccnc3)ncc21 [KG-0162-0]
16 | < 1 | N#Cc1cccc(Nc2ncc3c(n2)CCCCC3=O)c1F [Compound 0087]
17 | < 1 | N#Cc1cc(Nc2ncc3c(n2)CCCCC3=O)cc(OCc2c(F)c(F)c(F)c(F)c2F)c1 [Compound 0050]
18 | < 1 | N#Cc1cc(Nc2ncc3c(n2)CCCCC3=O)cc(OCc2ccccc2Cl)c1 [Compound 0047]
19 | < 1 | N#Cc1cc(Nc2ncc3c(n2)CCCC(O)C3=O)cs1 (stereo not shown) [KG-0333-0]
20 | < 1 | Cc1ccc(Nc2ncc3c(n2)CCCCC3=O)cc1C#N [Compound 0019]
21 | > 1000 | N#Cc1cc(Nc2ncc3c(n2)CCCCC3=O)cc(OCc2c[nH]c3ccccc23)c1 [Compound 0081]
22 | < 1 | N#Cc1cc(Nc2ncc3c(n2)CCCCC3=O)cc(OCc2cccc(CO)c2)c1 [Compound 0083]
23 | < 1 | C#CCOc1cc(C#N)cc(Nc2ncc3c(n2)CCCCC3=O)c1 [Compound 0062]
24 | < 1 | N#Cc1cc(Nc2ncc3c(n2)CCCCC3=O)cc(OCc2ccc(CO)cc2)c1 [Compound 0082]
25 | 1 to 1000 | N#Cc1cc(Nc2ncc3c(n2)CCCCC3=O)cc(OCc2ccc(OC(F)(F)F)cc2)c1 [Compound 0077]
26 | > 1000 | Cc1cccc(Nc2ccc3c(n2)CCCC3=O)c1 [KG-0052]

Row | IC50 [µM] | SMILES
27 | < 1 | N#Cc1cc(Nc2ncc3c(n2)CCCC(Br)C3=O)cs1 (stereo not shown) [KG-0336-0]
28 | < 1 | N#Cc1cc(Nc2ncc3c(n2)CCC(Br)C3=O)cs1 (stereo not shown) [KG-0316]
29 | < 1 | COCCOc1cc(C#N)cc(Nc2ncc3c(n2)CCCCC3=O)c1 [Compound 0125]
30 | 1 to 1000 | N#Cc1cc(Nc2ncc3c(n2)CCCCC3=O)cc(Oc2ccccc2)c1 [Compound 0084]
31 | < 1 | N#Cc1cc(Nc2ncc3c(n2)CCCCC3=O)cc(OCC2CC2)c1 [Compound 0097]
32 | 1 to 1000 | N#Cc1cc(Nc2ncc3c(n2)CCCCC3C(C#N)C#N)cs1 (stereo not shown) [Compound 0136]
33 | < 1 | N#Cc1cc(Nc2ncc3c(n2)CCCCC3=O)cc(OCc2ccsc2)c1 [Compound 0049]
34 | 1 to 1000 | N#Cc1cc(Nc2ncc3c(n2)CCCc2cn[nH]c2-3)cs1 [Compound 0067]
35 | 1 to 1000 | O=C1CCCc2nc(NCc3ccncc3)ncc21 [KG-0163-0]
36 | 1 to 1000 | N#Cc1cc(Nc2ncc3c(n2)CCCCC3=O)cc(OCC2CCCCC2)c1 [Compound 0072]
37 | > 1000 | N#Cc1cc(Nc2ncc3c(n2)CCCC/C3=N\O)cs1 [Compound 0053]
38 | < 1 | N#Cc1cc(Nc2ncc3c(n2)CCCC(C(F)(F)F)C3=O)cs1 (stereo not shown) [KG-0337-0]
39 | < 1 | N#Cc1cc(Nc2ncc3c(n2)CCCCC3=O)cc(OCc2ccncc2)c1 [Compound 0078]
40 | < 1 | O=C1CCCCc2nc(Nc3ccc(-c4nnn[nH]4)cc3)ncc21 [Compound 0036]
41 | < 1 | N#Cc1cccc(Nc2ncc3c(n2)CCCC(Br)C3=O)c1 (stereo not shown) [KG-0334]
42 | 1 to 1000 | CCOCCOc1cc(C#N)cc(Nc2ncc3c(n2)CCCCC3=O)c1 [Compound 0090]
43 | 1 to 1000 | O=C1CCCCc2nc(Nc3cc(C(F)(F)F)cc(C(F)(F)F)c3)ncc21 [Compound 0014]
44 | 1 to 1000 | Cc1cccc(Nc2ncc3c(n2)CCNC3=O)c1 [KG-0055-0]
45 | 1 to 1000 | Cn1cc(Nc2ncc3c(n2)CCCCC3=O)cc1C#N [Compound 0057]
46 | > 1000 | Cc1cccc(Nc2ccc3c(c2)CCCC3=O)c1 [KG-0054]
47 | < 1 | N#Cc1cc(Nc2ncc3c(n2)CCCCC3=O)cc(OCc2ccc3c(c2)OCO3)c1 [Compound 0075]
48 | < 1 | CCOc1cc(C#N)cc(Nc2ncc3c(n2)CCCCC3=O)c1 [Compound 0059]
49 | 1 to 1000 | Cc1csc(Nc2ncc3c(n2)CCCC3=O)n1 [KG-0219-0]
50 | 1 to 1000 | N#Cc1cc(Nc2ncc3c(n2)CCCc2cnoc2-3)cs1 [Compound 0052]
51 | 1 to 1000 | N#Cc1cccc(Nc2ncc3c(n2)COCC3=O)c1 [KG-0190-0]

Row | SMILES | IC50 [µM]
52 | N#Cc1cc(Nc2ncc3c(n2)CCCCC3=O)cs1 [KG-0338] | < 1

Same assay, conditions: Normalized in vitro IC50, Table 1; diaphorase-coupled biochemical assay, normalization to an intraplate control

Row | IC50 | SMILES
53 | > 1000 µM | CN(c1cccc(C#N)c1)c1ncc2c(n1)CCCC2=O [KG-0176]
54 | 1 to 1000 µM | O=C1CCCc2nc(Nc3cccc(Br)c3)ncc21 [KG-0167-0A]
55 | < 1 µM | O=C1CCCc2nc(Nc3cccc(F)c3)ncc21 [KG-0061-0]
56 | < 1 µM | COc1cc(Cl)cc(Nc2ncc3c(n2)CCCC3=O)c1 [KG-0256-0]
57 | > 1000 µM | O=C(Nc1ncc2c(n1)CCCC2=O)c1ccccc1 [KG-0258-0]
58 | 1 to 1000 µM | O=C1CCCc2nc(NCc3ccccc3)ncc21 [KG-0164-0]
59 | 1 to 1000 µM | O=C1CCCc2nc(Nc3cccc(C4CC4)c3)ncc21 [KG-0203-0]
60 | < 1 µM | CC1CCc2nc(Nc3cccc(C#N)c3)ncc2C1=O (stereo not shown) [KG-0205-0]
61 | < 1 µM | O=C1CCCCc2nc(Nc3cccc(F)c3)ncc21 [KG-0339]
62 | 1 to 1000 µM | O=C1CCCc2nc(Nc3cccc(CO)c3)ncc21 [KG-0240-0]
63 | 1 to 1000 µM | O=C1CCCc2nc(Nc3cccc(-c4nnn[nH]4)c3)ncc21 [KG-0241-0]
64 | 1 to 1000 µM | O=C1CCCc2nc(Nc3ccc4scnc4c3)ncc21 [KG-0227-0]
65 | 1 to 1000 µM | Cc1cccc(Nc2ncc3c(n2)CCCC3=O)c1 [KG-0051-0]
66 | < 1 µM | O=C1CCCc2nc(Nc3cccc(O)c3)ncc21 [KG-0186-0A]
67 | < 1 µM | N#Cc1cccc(Nc2ncc3c(n2)CCC(O)C3=O)c1 (stereo not shown) [KG-0315-0A]
68 | 1 to 1000 µM | O=C1CCCc2nc(Nc3ccc4cc[nH]c4c3)ncc21 [KG-0166-0]
69 | 1 to 1000 µM and > 1000 µM | CC(Nc1ncc2c(n1)CCCC2=O)c1ccccc1 (stereo not shown) [KG-0165-0]
70 | 1 to 1000 µM | CCOc1cccc(Nc2ncc3c(n2)CCCC3=O)c1 [KG-0239-0]
71 | < 1 µM | N#Cc1cccc(Nc2ncc3c(n2)CCCC3=O)c1 [KG-0062-0]
72 | 1 to 1000 µM | C#Cc1cccc(Nc2ncc3c(n2)CCCC3=O)c1 [KG-0183-0]

Same assay, conditions: Normalized in vitro IC50, Table 1A; diaphorase-coupled biochemical assay, normalization to an intraplate control

Row | IC50 [µM] | SMILES
73 | < 1 | O=C1CCCCc2nc(Nc3cccc(Cl)c3)ncc21 [Compound 0028]
74 | 1 to 1000 | COc1ccc(Nc2ncc3c(n2)CCCCC3=O)cc1 [Compound 0008]
75 | 1 to 1000 | CC(C)c1ccc(Nc2ncc3c(n2)CCCCC3=O)cc1 [Compound 0007]
76 | 1 to 1000 | COC(=O)c1ccc(Nc2ncc3c(n2)CCCCC3=O)cc1 [Compound 0022]
77 | 1 to 1000 | COc1ccc(Oc2cc(C#N)cc(Nc3ncc4c(n3)CCCCC4=O)c2)cc1 [Compound 0086]
78 | 1 to 1000 | O=C1CCCCc2nc(Nc3ccccc3)ncc21 [Compound 0021]
79 | 1 to 1000 | O=C1CCCCc2nc(Nc3ccc(C(F)(F)F)cc3)ncc21 [Compound 0010]
80 | 1 to 1000 | O=C1CCCCc2nc(Nc3ccc(I)cc3)ncc21 [Compound 0004]
81 | 1 to 1000 | O=C1CCCCc2nc(Nc3ccc(F)cc3)ncc21 [Compound 0001]
82 | 1 to 1000 | O=C1CCCCc2nc(Nc3ccc(B(O)O)cc3)ncc21 [Compound 0032]
83 | 1 to 1000 | N#Cc1ccc(Nc2ncc3c(n2)CCCCC3=O)cc1 [Compound 0012]
84 | 1 to 1000 | O=C1CCCCc2nc(Nc3ccc([N+](=O)[O-])cc3)ncc21 [Compound 0011]
85 | < 1 | COc1ccc(Nc2ncc3c(n2)CCCCC3=O)cc1C#N [Compound 0020]
86 | 1 to 1000 | CCc1ccc(Nc2ncc3c(n2)CCCCC3=O)cc1 [Compound 0006]
87 | > 1000 | CC(=O)Nc1ccc(Nc2ncc3c(n2)CCCCC3=O)cc1 [Compound 0013]

Row | SMILES | IC50 [µM]
88 | N#Cc1cc(Nc2ncc3c(n2)CCCCC3=O)cs1 [Compound 0065] | < 1
